Results published in article PMC7680425 (Cell chemical biology, 2020).

Columns and labels:
PfROM4 [1] = test: Merozoite adhesin shedding assay: EBA175 shedding by PfROM4; format: cell-based, P. falciparum; conditions: 10μM RiKa (p=0.0014) or 25mM EGTA, 90 min at 37°C
PfROM4 [2] = format: cell-based, P. falciparum; conditions: transfected HEK293T cells

Row | Compound | shedding of EBA175 by PfROM4 from free merozoites (PfROM4 [1]) | inhibition of EBA175 processing by PfROM4 (PfROM4 [2])
1 | O=C(O)CN(CCOCCOCCN(CC(=O)O)CC(=O)O)CC(=O)O [EGTA] | did not inhibit | –
2 | Ac-KRFRSMQYSA-CHO (Ac-KRFRSMQYSA-aldehyde; SMILES CSCC[C@H](NC(=O)[C@H](CO)NC(=O)[C@H](CCCNC(=N)N)NC(=O)[C@H](Cc1ccccc1)NC(=O)[C@H](CCCNC(=N)N)NC(=O)[C@H](CCCCN)NC(C)=O)C(=O)N[C@@H](CCC(N)=O)C(=O)N[C@@H](Cc1ccc(O)cc1)C(=O)N[C@@H](CO)C(=O)N[C@@H](C)C=O) | – | abrogated PfROM4 inhibition
